Source: patent US20140073637A1, “AMINO-SUBSTITUTED-ALKYLOXY-BENZO[E]PYRIDO[4,3-B]INDOLE DERIVATIVES AS NEW POTENT KINASE INHIBITORS” (INSTITUT CURIE, priority 2011, published 2014)

Experiments:
[1] = target: T1, Aurora B (Homo sapiens, UniProt Q96GD4); assay: Aurora B inhibition in cells: Histone H3 Ser10 phosphorylation by western blotting and immunofluorescence; assay type: cell-based; parameters: endogenous in cells; host or cells: U2OS (human osteosarcoma); HeLa also used for the maleate salts; settings: U2OS mitotic extracts; 1 μM overnight; western blotting (FIG. 3)
Description: Actin is used as control of quantity. Cells were incubated overnight in the presence of either C1, or C2 or CH21 or C14 or DMSO(C: control). All compounds were tested at 1 μM. Proteins were detected by western blotting.
Cells were incubated with the different molecules and Aurora B inhibition is estimated by western blotting (WB) and immuno fluorescent experiments. Histone H3 phosphorylated on Ser10 is used as a marker of Aurora B kinase activity and actin as an internal control. Each WB signal is compared to the control in the absence of compound. The efficiency estimated by WB is indicated by +++: very efficient inhibition to −: no inhibition. Immunofluorescent labelling of a mitotic cell by Histone H3 illustrates Aurora B kinase activity. However immunofluorescence is less sensitive than WB. Active molecules are underlined by a square and the intensity of the line indicates the efficiency of inhibition.
FIG. 10A: Immunofluorescence with phospho-Ser10-Histone H3 antibodies. Either the percentage of positive phospho-Ser10-Histone H3 is indicated or a representative mitosis shown. […] Immunofluorescent assays were realized with a specific phospho-antibody and mitotic U2OS cells are recognized by their DNA content stained with Hoechst. On the right, a representative cell or the percentage of H3-S10-P labelled mitosis.
(§1) FIG. 10B: Immunoblotting analysis of histone H3 phosphorylation. U2OS cells were incubated overnight with Nocodazole (50 nM) in the presence of either DMSO (Co) or Compounds (1 μM). Cells were then collected and lyzed. Identical amounts of the lyzed cell samples were run on 18% acrylamide gel containing SDS.
as §1, with “FIGS. 11B and 11C:” for “FIG. 10B:”, “U2OS and HeLa” for “U2OS”
Cells were incubated with the different molecules and Aurora B inhibition is estimated by western blotting and immunofluorescent experiments. Histone H3 phosphorylated on Ser10 is used as a marker of Aurora B kinase activity and actin as an internal control. Results are represented in FIGS. 4 and 10 and Table 3.
Cells were treated by compounds, harvested and lyzed in 9M urea then supplemented with Laemmli sample buffer. Cell extracts were subjected to SDS-PAGE and transferred to nitrocellulose filter (GE Healthcare). After blocking with 5% non-fat milk in PBS for at least 1 hour, the membranes were incubated with the primary antibodies. The following antibodies were used: phospho-Histone H3 Ser10 (1:2000, Upstate Biotechnology), anti LAST1 (Cell signalling), anti Aurora B (epitomics) and anti alpha-tubulin (Sigma) Anti-rabbit horseradish peroxidase (1:5000, GE Healthcare) was used as secondary antibodies. Bands were visualized by ECL technique (Amersham Bioscience).
Cells were seeded on glass coverslips and treated by compounds (1 μM) overnight. After treatment, cells were fixed in 4% formaldhehyde at 37° C. for 15 minutes, then permeabilized for 5 minutes with Triton X-100 in PBS.

[2] = system: 121 kinases; assay: Kinase profiling on a set of 121 kinases; assay type: biochemical; settings: kinases presenting the highest inhibitions; lists not exhaustive
Description: FIG. 1A: The potential inhibition of C14 was tested against 121 kinases, in vitro, at the concentration of 1 μM. The kinase activities, in the presence of C14, are represented, each kinase being represented by a vertical bar. Only 18 kinases have less than 30% activity in the presence of C14.
(§2) The specificity of C14 was tested, in vitro, against 121 kinases representative of the kinome. Assays run in duplicate, at the concentration of 1 μM, were performed by MRC (Dundee, UK). Results are represented in FIG. 1. The main targets are highlighted in FIG. 1B.
(§3) The profiling was performed at the MRC (Dundee University), in duplicate, on a set of 121 kinases. The panel is representative of the major different classes of kinases. Compounds were used at the concentration of 1 μM. In vitro, IC50 were determined on recombinant kinases by Reaction biology Corp (USA).

[3] = target: Chk2 (Homo sapiens, UniProt O96017); assay: Kinase profiling in vitro at 1 μM; assay type: biochemical; settings: compound at 1 μM, read-out: percentage of remaining activity of recombinant kinase
Description: as §2
(§4) In addition, the percentage of remaining activity of recombinant kinases Aurora kinases A and B and Checkpoint kinases 1 and 2 at the concentration of 1 μM of C1, C2 and C14 have been determined.
as §3

[4] = target: T1, Aurora B; assay: Kinase profiling in vitro at 1 μM; assay type: biochemical; settings: compound at 1 μM, read-out: percentage of remaining activity of recombinant kinase
Description: as §2, §4, §3

[5] = target: T2, CHK1 (Homo sapiens, UniProt O14757); assay: Kinase profiling in vitro at 1 μM; assay type: biochemical; settings: Chk1; compound at 1 μM; read-out: percentage of remaining activity of recombinant kinase
T2 sequence (O14757 1-476): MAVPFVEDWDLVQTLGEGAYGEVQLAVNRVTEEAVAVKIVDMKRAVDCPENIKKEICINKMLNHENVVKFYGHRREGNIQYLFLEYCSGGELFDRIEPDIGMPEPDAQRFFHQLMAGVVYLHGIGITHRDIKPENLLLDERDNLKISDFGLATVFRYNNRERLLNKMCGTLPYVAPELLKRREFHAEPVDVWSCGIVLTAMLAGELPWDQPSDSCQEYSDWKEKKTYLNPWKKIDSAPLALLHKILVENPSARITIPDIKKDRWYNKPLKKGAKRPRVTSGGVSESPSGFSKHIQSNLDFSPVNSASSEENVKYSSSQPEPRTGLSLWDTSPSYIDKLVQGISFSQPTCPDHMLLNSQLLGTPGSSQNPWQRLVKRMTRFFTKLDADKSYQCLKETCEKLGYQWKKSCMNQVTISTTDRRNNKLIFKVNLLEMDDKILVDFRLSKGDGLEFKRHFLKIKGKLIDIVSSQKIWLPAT
Description: as §2, §4, §3

[6] = target: T3, Aurora A (Homo sapiens, UniProt O14965); assay: Kinase profiling in vitro at 1 μM; assay type: biochemical; settings: Aurora A; compound at 1 μM; read-out: percentage of remaining activity of recombinant kinase
T3 sequence (O14965 1-403): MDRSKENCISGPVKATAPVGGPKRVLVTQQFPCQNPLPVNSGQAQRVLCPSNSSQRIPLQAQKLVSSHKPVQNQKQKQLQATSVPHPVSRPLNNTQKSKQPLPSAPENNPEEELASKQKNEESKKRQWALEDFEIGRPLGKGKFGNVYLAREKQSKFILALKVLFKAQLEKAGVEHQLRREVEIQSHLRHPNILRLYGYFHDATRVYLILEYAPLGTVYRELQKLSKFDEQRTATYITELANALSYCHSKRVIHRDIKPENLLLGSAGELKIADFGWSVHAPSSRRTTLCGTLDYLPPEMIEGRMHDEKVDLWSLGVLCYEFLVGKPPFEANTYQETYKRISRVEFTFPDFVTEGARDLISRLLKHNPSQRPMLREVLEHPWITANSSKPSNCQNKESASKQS
Description: Assays were run in vitro against recombinant kinases. The activity is reported for each kinase, grey histograms for CH21, white for C14 and gradation grey for C1. […] Therefore, C1 and C14 affect differently the Aurora kinase family.
as §2, §4, §3

[7] = system: HeLa cells; settings: previously reported in Hoang et al, 2009, indicated for comparison, read-out: IC50 (in nM), antiproliferative assay; cited from earlier work

T1 sequence (Q96GD4 whole entry): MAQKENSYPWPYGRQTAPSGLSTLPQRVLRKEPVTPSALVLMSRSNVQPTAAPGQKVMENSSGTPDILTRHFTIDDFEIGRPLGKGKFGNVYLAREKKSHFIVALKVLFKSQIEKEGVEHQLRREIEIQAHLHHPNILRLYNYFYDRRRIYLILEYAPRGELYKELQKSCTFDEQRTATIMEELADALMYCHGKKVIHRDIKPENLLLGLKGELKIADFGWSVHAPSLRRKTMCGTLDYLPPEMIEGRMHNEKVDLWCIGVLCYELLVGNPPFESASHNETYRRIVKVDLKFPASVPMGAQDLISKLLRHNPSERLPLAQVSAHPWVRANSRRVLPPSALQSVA
Sequence of Chk2 (O96017 whole entry, species assumed): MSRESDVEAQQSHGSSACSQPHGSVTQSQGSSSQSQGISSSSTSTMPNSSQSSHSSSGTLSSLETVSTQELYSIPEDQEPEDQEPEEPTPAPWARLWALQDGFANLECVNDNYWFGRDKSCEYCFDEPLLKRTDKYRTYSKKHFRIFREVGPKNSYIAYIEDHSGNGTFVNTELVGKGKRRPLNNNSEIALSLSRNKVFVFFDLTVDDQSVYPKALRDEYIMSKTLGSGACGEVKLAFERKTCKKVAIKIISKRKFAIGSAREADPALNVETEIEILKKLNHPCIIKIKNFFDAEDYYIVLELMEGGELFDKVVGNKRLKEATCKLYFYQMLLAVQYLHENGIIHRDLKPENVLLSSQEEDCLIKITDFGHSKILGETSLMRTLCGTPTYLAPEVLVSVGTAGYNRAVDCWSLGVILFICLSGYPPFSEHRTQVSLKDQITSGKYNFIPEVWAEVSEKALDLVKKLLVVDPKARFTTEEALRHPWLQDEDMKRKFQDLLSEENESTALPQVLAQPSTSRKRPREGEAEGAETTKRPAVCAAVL

Aurora B inhibition in cellulo (Histone H3 phosphorylation, in words) [1]: mild inhibitory activity
Known Targets (%) [2]: Aurora A Aurora B Chk1 Chk2 Flt3
remaining activity at 1 µM [3]: 3%
remaining activity at 1 µM [4]: 24%
remaining activity at 1 µM [5]: 12%
remaining activity at 1 µM [6]: 11%
Structure (SMILES): COc1ccc2c(ccc3[nH]c4c(C)c[nH]c(=O)c4c32)c1 [Compound C2, reference compound]
IC50 [7]: 1160 ± 150 nM
